Source: ChEMBL document CHEMBL1201862, “PubChem BioAssay data set” (2004)
Activity calls are given as the source filed them.

Tests used:
[1] = Cytotoxicity screening for potential Inhibitors of Bacterial Capsule Biogenesis (4).; assay type: functional
[2] = HepG2 cell cytotoxicity, dose response, cytotoxicity control, ATP luminescence, cherry-pick, set 6 (AID 1053125); assay type: functional, cell-based
[3] = A549 cell cytotoxicity, dose response, cytotoxicity control, plate reader, cherry-pick, antagonist series (AID 743412); assay type: functional, cell-based
[4] = HepG2 cell cytotoxicity, dose response, cytotoxicity control, plate reader, cherry-pick, antagonist series (AID 743416); assay type: functional, cell-based
[5] = LGR2 antagonists, dose response, cell-based, HEK293, CRE-luciferase reporter, cherry pick (AID 743342); assay type: functional
[6] = MC4R antagonists, dose response, counter-screen for LGR2 antagonist project, cell-based, plate reader, cherry pick (AID 743444); assay type: functional;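 note: transfected HEK 293 cells stimulated with alpha-MSH peptide; potency of inhibitors of the alpha-MSH evoked signal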
[7] = HEK293 cell cytotoxicity, dose response, cytotoxicity control, plate reader, cherry-picked samples (AID 743446); assay type: functional, cell-based
[8] = target: Major prion protein (Homo sapiens, UniProt P04156); assay type: functional, cell-based
[9] = cells
[10] = A375 melanoma cell viability loss, dose response, counter-screen for MITF inhibitor project, CellTiter-Glo luminescence, dry powder, set 4 (AID 624364); assay type: functional, cell-based; conditions: A-375;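 note: A375 melanoma cells are MITF independent so this is a counter screen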
[11] = A375 melanoma cell cytotoxicity, dose response, counter-screen for MITF inhibitor project, CellTiter-Glo luminescence, dry powder, set 2 (AID 624489); assay type: functional, cell-based; conditions: A-375;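 note: actives are compounds lowering A375 viability meaning general cytotoxicity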
[12] = MITF Orthogonal Assay: SK-MEL-5 CTG Assay Measured in Cell-Based System Using Plate Reader - 2084-02_Inhibitor_Dose_DryPowder_Activity_Set7.; assay type: functional
[13] = MITF: Counter assay: A375 proliferation Measured in Cell-Based System Using Plate Reader - 2084-03_Inhibitor_Dose_DryPowder_Activity_Set8.; assay type: functional; conditions: A-375
[14] = TRPM1 promoter luciferase reporter signal decrease, dose response, MITF inhibitor project, cell-based, SK-MEL-5, dry powder, set 8 (AID 624430); assay type: functional
[15] = target: Heat shock protein HSP 90-alpha (Homo sapiens, UniProt P07900); assay type: functional, organism-based
[16] = Shn3 3'UTR reporter inhibitors, dose response, cell-based, Clone20 osteoblasts, firefly luciferase, cherry-picked (AID 624132); assay type: functional;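 note: firefly luciferase luminescence from reporter carrying the Shn3 3'UTR in osteoblasts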
[17] = control 3'UTR Renilla luciferase suppression, dose response, counter-screen for Shn3 inhibitor project, cell-based, Clone20-Shn3RL, cherry-picked (AID 624133); assay type: functional
[18] = target: T1, COUP transcription factor 2 (Homo sapiens, UniProt P24468); assay: Luminescence-based cell-based high throughput dose response assay to identify inhibitors of COUP-TFII (NR2F2).; assay type: functional;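 note: HEK293 cells transiently cotransfected with COUP-TFII expression vector and reporter; luciferase reporter luminescence driven by COUP-TFII from the pX2-168 reporter plasmid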
T1 sequence (P24468 whole entry): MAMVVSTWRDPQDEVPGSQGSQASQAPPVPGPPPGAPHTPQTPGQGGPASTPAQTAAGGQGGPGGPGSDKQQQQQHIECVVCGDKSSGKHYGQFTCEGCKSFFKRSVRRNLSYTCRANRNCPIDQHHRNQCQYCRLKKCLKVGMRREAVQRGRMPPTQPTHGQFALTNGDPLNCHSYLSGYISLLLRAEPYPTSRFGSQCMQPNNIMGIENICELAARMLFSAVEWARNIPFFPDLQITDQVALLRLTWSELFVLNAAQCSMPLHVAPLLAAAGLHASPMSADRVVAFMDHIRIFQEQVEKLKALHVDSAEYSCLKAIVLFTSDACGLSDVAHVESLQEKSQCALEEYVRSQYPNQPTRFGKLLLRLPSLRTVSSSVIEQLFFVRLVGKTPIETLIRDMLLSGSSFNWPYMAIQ

[19] = inhibitors of PGC1a acetylation in cells, dose response, cell-based, cherry-picked samples (AID 720514); assay type: functional;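 note: potency may reflect raised or lowered acetylation signal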
[20] = HeLa 2N DNA content increase, dose response, cell-based, IC50 (AID 1117349); assay type: functional
[21] = HeLa 4N DNA content increase, dose response, cell-based, IC50 (AID 1117351); assay type: functional
[22] = system: HeLa; assay: HeLa cell cytotoxicity, dose response, cytotoxicity control, ATP luminescence, cherry-pick samples (AID 687004); assay type: functional, cell-based; conditions: Homo sapiens
[23] = system: HEK293; assay: HEK293T cell cytotoxicity, dose response, cytotoxicity control, ATP luminescence, cherry-pick samples (AID 687005); assay type: functional, cell-based; conditions: Homo sapiens;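 note: cells exposed to compound for 48 hours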
[24] = HEK293 Cytotoxicity Assay Measured in Cell-Based System Using Plate Reader - 7071-01_Inhibitor_Dose_CherryPick_Activity_Set2.; assay type: functional
[25] = P. falciparum 3D7-ScDHODH growth inhibitors, dose response, SYBR Green, dry powder samples (AID 1159570); assay type: functional, cell-based;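 note: parasite growth measured after 72 hours of compound exposure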
[26] = HepG2 cell cytotoxicity, dose response, cytotoxicity control, plate reader, dry powder samples (AID 1159569); assay type: functional, cell-based;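 note: inhibitor potency with signal falling toward the positive control level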
[27] = P. falciparum Dd2 growth inhibitors, dose response, SYBR Green, cherry-picked samples (AID 1159567); assay type: functional, cell-based
[28] = P. falciparum Dd2 growth inhibitors, dose response, SYBR Green, dry powder samples (AID 1159566); assay type: functional, cell-based;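 note: potency for growth inhibition with lower SYBR green DNA signal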
[29] = HepG2 cell cytotoxicity, dose response, cytotoxicity control, cherry-picked samples (AID 1159577); assay type: functional, cell-based
[30] = P. falciparum ATP4 D1247Y mutant growth inhibitors, dose response, NITD609-resistant line, SYBR Green, dry powder (AID 1159571); assay type: functional, cell-based;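 note: parasites synchronized at ring stage by sorbitol before testing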

Structure (SMILES): Cc1nc2ccc(C(=O)Nc3ccncc3)cc2s1
- CC50 [1]: > 300 µM (active)

Structure (SMILES): Cc1cccn2c(=O)c3cc(C#N)/c(=N\C(=O)c4cccs4)n(CC(C)C)c3nc12
- AC50 [2]: > 52 µM (inactive)

Structure (SMILES): C[C@H]1CCCCO[C@@H](CN(C)S(=O)(=O)c2ccc(Cl)cc2)[C@@H](C)CN([C@@H](C)CO)C(=O)c2cc(NC(=O)NC3CCCCC3)ccc2O1
- AC50 [3]: 20.1 µM (active)
- AC50 [4]: > 52 µM (inactive)
- AC50 [5]: 32.4 µM (active)
- AC50 [6]: 30.1 µM (active)
- AC50 [7]: > 52 µM (inactive)

Structure (SMILES): O=C(O)c1ccccc1C(=O)c1cccc2c(Br)cccc12
- IC50 [8]: 1.57 µM (active)
- IC50 [9]: > 138 µM (inactive)

Structure (SMILES): CN1CCN(C2=C(NC(=O)c3ccccc3)C(=O)c3ccccc3C2=O)CC1
- AC50 [10]: 17 µM (active)
- AC50 [11]: 12.9 µM (active)

Structure (SMILES): O=C1C(Nc2ccc(F)cc2)=C(N2CCCC2)C(=O)c2ccccc21
- AC50 [12]: 0.625 µM (active)
- AC50 [13]: 11.9 µM (active)
- AC50 [14]: 0.583 µM (active)

Structure (SMILES): C[C@@H]1C[C@@H]([C@H](O)CC2CC(=O)NC(=O)C2)C(=O)[C@@H](C)C1 [CYCLOHEXIMIDE]
- AC50 [15]: < 0.195 µM (active)
- AC50 [16]: 0.345 µM (active)
- AC50 [17]: 0.695 µM (active)
- IC50 [18]: 1.32 µM (active)
- AC50 [19]: 2.23 µM (active)
- IC50 [20]: > 10 µM (inactive)
- IC50 [21]: > 10 µM (inactive)

Structure (SMILES): C[C@@H]1CN([C@@H](C)CO)C(=O)c2c(c3ccccc3n2C)-c2ccccc2CO[C@@H]1CN(C)S(=O)(=O)c1ccc(Cl)cc1
- AC50 [22]: 49.1 µM (active)
- AC50 [23]: 25.3 µM (active)
- AC50 [24]: 25.3 µM (active)
- AC50 [25]: 3.95 µM (active)
- AC50 [26]: 39.2 µM (active)
- AC50 [27]: 2.33 µM (active)
- AC50 [28]: 1.97 µM (active)
- AC50 [29]: > 39 µM (inactive)
- AC50 [30]: 3.4 µM (active)
